Test results: US20100216751A1 (priority 2007, published 2010)

Test: Pharmacokinetic evaluation of liquid bevirimat dosage forms, oral gavage, male Cynomolgus monkeys
Conditions: male, cynomolgus monkey, in vivo, po; for AUC / Cmax / half-life / Tmax: 200 mg
Procedure: Six male Cynomolgus monkeys having an initial body weight of about 3.5 to about 4.5 kg are allowed 7 days to acclimate to their individual housing units. Monkeys are supplied with water and a commercial diet ad libitum prior to the study initiation. Food is withheld from the monkeys for a minimum of twelve hours before the study and during the study until four hours postdose when food is returned. Water is supplied ad libitum.
Test formulations are administered to the monkeys at time 0 on appropriate days. Test formulations will be dosed orally via oral gavage or intravenously.
Samples are drawn at the frequencies indicated below. Each blood sample (0.5 mL) is collected from the monkey's saphenous vein via a butterfly catheter and placed into a chilled polypropylene tube containing sodium heparin as the anticoagulant. Blood samples are centrifuged at a temperature of 4° C. at a speed of 3,000 rpm for 15 minutes. All samples are maintained chilled throughout processing. Plasma is collected after centrifugation, pipetted into a 2-mL polypropylene microtube, and frozen on dry-ice pending analytical evaluation.

[1] = 50 mg/monkey, Plasma Concentration, PG/glycerin/Vitamin ETPGS/Tween80/Plasdone C15 formulation, AVG
[2] = 50 mg/monkey, Plasma Concentration, PG/glycerin/Vitamin ETPGS/Tween80/Plasdone C15 formulation, individual monkey
[3] = 50 mg/monkey, Plasma Concentration, PG/glycerin/Vitamin ETPGS/ethanol formulation, AVG
[4] = 50 mg/monkey, Plasma Concentration, PG/glycerin/Vitamin ETPGS/ethanol formulation, individual monkey
[5] = 200 mg/monkey, Plasma Concentration, PG/glycerin/Vitamin ETPGS/ethanol formulation, AVG
[6] = 200 mg/monkey, Plasma Concentration, PG/glycerin/Vitamin ETPGS/ethanol formulation, individual monkey

With `C=C(C)[C@@H]1CC[C@]2(C(=O)O)CC[C@]3(C)[C@H](CC[C@@H]4[C@@]5(C)CC[C@H](OC(=O)CC(C)(C)C(=O)O)C(C)(C)[C@@H]5CC[C@]43C)[C@@H]12` [Bevirimat, 3-O-(3′,3′-dimethylsuccinyl)betulinic acid] the concentration at 1 h (50 mg/monkey, Plasma Concentration, PG/glycerin/Vitamin ETPGS/Tween80/Plasdone C15 formulation, 1.0 hr, AVG) was 24800 ng/mL, the concentration at 2 h [1] was 61600 ng/mL and the concentration at 2 h [2] was 52700 ng/mL. The concentration at 4 h [1] was 53600 ng/mL, the concentration at 4 h [2] was 55100 ng/mL and the concentration at 6 h [1] was 32300 ng/mL. For the same molecule, the concentration at 6 h [2] was 31500 ng/mL, the concentration at 8 h (50 mg/monkey, Plasma Concentration, PG/glycerin/Vitamin ETPGS/Tween80/Plasdone C15 formulation, 8.0 hr, AVG) was 21000 ng/mL and the concentration at 8 h (50 mg/monkey, Plasma Concentration, PG/glycerin/Vitamin ETPGS/Tween80/Plasdone C15 formulation, 8.0 hr, individual monkey) was 22300 ng/mL. For the same molecule, the concentration at 12 h (50 mg/monkey, Plasma Concentration, PG/glycerin/Vitamin ETPGS/Tween80/Plasdone C15 formulation, 12 hr, AVG) was 8160 ng/mL, the concentration at 12 h (50 mg/monkey, Plasma Concentration, PG/glycerin/Vitamin ETPGS/Tween80/Plasdone C15 formulation, 12 hr, individual monkey) was 8580 ng/mL and the concentration at 24 h (50 mg/monkey, Plasma Concentration, PG/glycerin/Vitamin ETPGS/Tween80/Plasdone C15 formulation, 24 hr, AVG) was 1270 ng/mL. The concentration at 24 h (50 mg/monkey, Plasma Concentration, PG/glycerin/Vitamin ETPGS/Tween80/Plasdone C15 formulation, 24 hr, individual monkey) was 1320 ng/mL, the concentration at 48 h (50 mg/monkey, Plasma Concentration, PG/glycerin/Vitamin ETPGS/Tween80/Plasdone C15 formulation, 48 hr, AVG) was 336 ng/mL and the concentration at 72 h (50 mg/monkey, Plasma Concentration, PG/glycerin/Vitamin ETPGS/Tween80/Plasdone C15 formulation, 72 hr, individual monkey) was 112 ng/mL. The concentration at 0.25 h (50 mg/monkey, Plasma Concentration, PG/glycerin/Vitamin ETPGS/ethanol formulation, 0.25 hr, individual monkey) was 78.4 ng/mL, the concentration at 0.5 h (50 mg/monkey, Plasma Concentration, PG/glycerin/Vitamin ETPGS/ethanol formulation, 0.50 hr, AVG) was 246 ng/mL and the concentration at 1 h (50 mg/monkey, Plasma Concentration, PG/glycerin/Vitamin ETPGS/ethanol formulation, 1.0 hr, AVG) was 36900 ng/mL. It also gave a concentration at 2 h [3] of 60100 ng/mL, a concentration at 2 h [4] of 58900 ng/mL and a concentration at 4 hr [3] of 42500 ng/mL. The concentration at 4 h [4] was 34500 ng/mL, the concentration at 6 hr [3] was 23000 ng/mL and the concentration at 8 hr (50 mg/monkey, Plasma Concentration, PG/glycerin/Vitamin ETPGS/ethanol formulation, 8.0 hr, AVG) was 14700 ng/mL. For the same molecule, the concentration at 12 hr (50 mg/monkey, Plasma Concentration, PG/glycerin/Vitamin ETPGS/ethanol formulation, 12 hr, AVG) was 5310 ng/mL, the concentration at 24 hr (50 mg/monkey, Plasma Concentration, PG/glycerin/Vitamin ETPGS/ethanol formulation, 24 hr, AVG) was 1340 ng/mL and the concentration at 48 hr (50 mg/monkey, Plasma Concentration, PG/glycerin/Vitamin ETPGS/ethanol formulation, 48 hr, AVG) was 149 ng/mL. It also gave an AUC (AUCall) of 1300 µg·h/mL, an AUC (AUCall, 200 mg/monkey, PG/glycerin/Vitamin ETPGS/ethanol formulation, individual monkey) of 1200 µg·h/mL and a Cmax (Cmax, 200 mg/monkey, PG/glycerin/Vitamin ETPGS/ethanol formulation, AVG) of 217000 ng/mL. It also gave a Cmax (Cmax, 200 mg/monkey, PG/glycerin/Vitamin ETPGS/ethanol formulation, individual monkey) of 202000 ng/mL, an AUC (pH 8) of 1970 µg·h/mL and a Cmax (pH 8) of 225000 ng/mL. For the same molecule, the half-life (pH 8) was 8.3 h, the AUC (pH 8, AUCall) was 1390 µg·h/mL and the Tmax (pH 8, tmax) was 2 h. The half-life (t1/2, oral, 200 mg/monkey, PG/glycerin/Vitamin ETPGS/ethanol formulation, AVG) was 10.8 h, the half-life (t1/2, oral, 200 mg/monkey, PG/glycerin/Vitamin ETPGS/ethanol formulation, individual monkey) was 11.4 h and the Tmax (tmax) was 2 h. The concentration at 0.25 hr (200 mg/monkey, Plasma Concentration, PG/glycerin/Vitamin ETPGS/ethanol formulation, 0.25 hr, AVG) was 565 ng/mL, the concentration at 0.5 hr (200 mg/monkey, Plasma Concentration, PG/glycerin/Vitamin ETPGS/ethanol formulation, 0.50 hr, AVG) was 6020 ng/mL and the concentration at 1 hr (200 mg/monkey, Plasma Concentration, PG/glycerin/Vitamin ETPGS/ethanol formulation, 1.0 hr, AVG) was 64800 ng/mL. The concentration at 2 hr [5] was 217000 ng/mL, the concentration at 2 hr [6] was 202000 ng/mL and the concentration at 4 hr [5] was 152000 ng/mL. For the same molecule, the concentration at 4 hr [6] was 166000 ng/mL and the concentration at 6 hr [5] was 77800 ng/mL.
